#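 Step 1: Grow cells in 96-well plates. Step 2: Expose to compound for 48 hours at 5 concentrations. Step 3: Interpolate endpoints linearly; if unreached, use highest concentration. At the GI50, growth is halved.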 The source made the active and inactive calls. No stated cut-off is given here; in the data, active = GI50 up to about 1.1 µM and inactive = higher.
# Experiments:
# Assay in all cases: NCI anticancer screen, dose series, 48 h
# [1] = tested on: BT-549
# [2] = tested on: NCI-H226
# [3] = tested on: UACC-257
# [4] = tested on: A498
# [5] = tested on: IGROV-1
# [6] = tested on: OVCAR-3
# [7] = tested on: SW-620
# [8] = tested on: EKVX
# [9] = tested on: SF-268
# [10] = tested on: NCI-H522
# [11] = tested on: Hs-578T
# [12] = tested on: MDA-N
# [13] = tested on: OVCAR-8
# [14] = tested on: NCI/ADR-RES
# [15] = tested on: SF-295
# [16] = tested on: A549
# [17] = tested on: LOX IMVI
# [18] = tested on: UO-31
# [19] = tested on: HCT-116
# [20] = tested on: KM12
# [21] = tested on: UACC-62
# [22] = tested on: SN12C
# [23] = tested on: HT-29
# [24] = tested on: PC-3
# [25] = tested on: SNB-75
# [26] = tested on: SR
# [27] = tested on: CCRF-CEM
# [28] = tested on: K562
# [29] = tested on: ACHN
# [30] = tested on: CAKI-1
# [31] = tested on: COLO 205
# [32] = tested on: SK-MEL-2
# [33] = tested on: RXF 393
# [34] = tested on: MOLT-4
# [35] = tested on: 786-0
# [36] = tested on: SK-OV-3
# [37] = tested on: HL-60
# [38] = tested on: MDA-MB-231
# [39] = tested on: HCC 2998
# [40] = tested on: RPMI-8226
# [41] = tested on: NCI-H460
# [42] = tested on: NCI-H23
# [43] = tested on: Malme-3M
# [44] = tested on: OVCAR-4
# [45] = tested on: HCT-15
# [46] = tested on: SNB-19
# [47] = tested on: SF-539
# [48] = tested on: OVCAR-5
# [49] = tested on: HOP-92
# [50] = tested on: MCF7
# [51] = tested on: HOP-62
# [52] = tested on: TK-10
# [53] = tested on: T47D
# [54] = tested on: SK-MEL-28
# [55] = tested on: U-251
# [56] = tested on: SK-MEL-5
# [57] = tested on: DU-145
# [58] = tested on: M14
# [59] = tested on: MDA-MB-435
# [60] = tested on: DMS-114
# [61] = tested on: M19-MEL
# [62] = tested on: SNB-78
# [63] = tested on: LXFL 529
# [64] = tested on: KM-20L2
smiles,measurement,setting,value
O=C(Cn1cc(Br)c(=O)[nH]c1=O)c1ccc(-c2ccccc2)cc1,GI50,[1],3.18 µM (inactive)
same,GI50,[2],17 µM (inactive)
same,GI50,[3],15.9 µM (inactive)
same,GI50,[4],> 100 µM (inactive)
same,GI50,[5],15.7 µM (inactive)
same,GI50,[6],> 100 µM (inactive)
same,GI50,[7],> 17.5 µM (inactive)
same,GI50,[8],60 µM (inactive)
same,GI50,[9],4.71 µM (inactive)
same,GI50,[10],5.57 µM (inactive)
same,GI50,[11],29.6 µM (inactive)
same,GI50,[12],> 100 µM (inactive)
same,GI50,[13],6.76 µM (inactive)
same,GI50,[14],13 µM (inactive)
same,GI50,[15],10.9 µM (inactive)
same,GI50,[16],> 17.4 µM (inactive)
same,GI50,[17],> 15.4 µM (inactive)
same,GI50,[18],> 100 µM (inactive)
same,GI50,[19],> 16 µM (inactive)
same,GI50,[20],> 14.6 µM (inactive)
same,GI50,[21],> 100 µM (inactive)
same,GI50,[22],16.1 µM (inactive)
same,GI50,[23],> 17 µM (inactive)
same,GI50,[24],> 17.8 µM (inactive)
same,GI50,[25],1.85 µM (inactive)
same,GI50,[26],> 17 µM (inactive)
same,GI50,[27],> 12.6 µM (inactive)
same,GI50,[28],> 11.2 µM (inactive)
same,GI50,[29],18.6 µM (inactive)
same,GI50,[30],6 µM (inactive)
same,GI50,[31],> 16.4 µM (inactive)
same,GI50,[32],> 12.4 µM (inactive)
same,GI50,[33],63 µM (inactive)
same,GI50,[34],> 13 µM (inactive)
same,GI50,[35],10.5 µM (inactive)
same,GI50,[36],> 58.6 µM (inactive)
same,GI50,[37],> 17.4 µM (inactive)
same,GI50,[38],12.2 µM (inactive)
same,GI50,[39],> 15.8 µM (inactive)
same,GI50,[40],15.3 µM (inactive)
same,GI50,[41],> 15.9 µM (inactive)
same,GI50,[42],16.4 µM (inactive)
same,GI50,[43],> 26.5 µM (inactive)
same,GI50,[44],> 15.8 µM (inactive)
same,GI50,[45],7.67 µM
same,GI50,[46],2.25 µM (inactive)
same,GI50,[47],8.41 µM (inactive)
same,GI50,[48],> 14.4 µM (inactive)
same,GI50,[49],6.89 µM (inactive)
same,GI50,[50],> 17.5 µM (inactive)
same,GI50,[51],5.12 µM (inactive)
same,GI50,[52],> 30.8 µM (inactive)
same,GI50,[53],> 100 µM (inactive)
same,GI50,[54],> 14.3 µM (inactive)
same,GI50,[55],5.31 µM (inactive)
same,GI50,[56],> 15.6 µM (inactive)
same,GI50,[57],> 16.1 µM (inactive)
same,GI50,[58],> 15.1 µM (inactive)
same,GI50,[59],> 16.8 µM (inactive)
COC1CCC(OS(C)(=O)=O)CO1 (centres undefined),GI50,[3],> 100 µM (inactive)
same,GI50,[4],> 100 µM (inactive)
same,GI50,[5],> 100 µM (inactive)
same,GI50,[6],> 100 µM (inactive)
same,GI50,[9],86.7 µM (inactive)
same,GI50,[10],> 100 µM (inactive)
same,GI50,[15],> 100 µM (inactive)
same,GI50,[18],> 100 µM (inactive)
same,GI50,[19],> 100 µM (inactive)
same,GI50,[20],> 100 µM (inactive)
same,GI50,[21],> 100 µM (inactive)
same,GI50,[60],> 100 µM (inactive)
same,GI50,[23],> 100 µM (inactive)
same,GI50,[25],60.5 µM (inactive)
same,GI50,[26],24.7 µM (inactive)
same,GI50,[27],22.5 µM (inactive)
same,GI50,[28],69 µM (inactive)
same,GI50,[29],> 100 µM (inactive)
same,GI50,[31],> 100 µM (inactive)
same,GI50,[32],> 100 µM (inactive)
same,GI50,[33],> 100 µM (inactive)
same,GI50,[34],20.6 µM (inactive)
same,GI50,[61],> 100 µM (inactive)
same,GI50,[36],> 100 µM (inactive)
same,GI50,[37],35 µM (inactive)
same,GI50,[62],> 100 µM (inactive)
same,GI50,[40],26.2 µM (inactive)
same,GI50,[41],> 100 µM (inactive)
same,GI50,[42],> 100 µM (inactive)
same,GI50,[43],> 100 µM (inactive)
same,GI50,[44],> 100 µM (inactive)
same,GI50,[46],> 100 µM (inactive)
same,GI50,[47],> 100 µM (inactive)
same,GI50,[63],> 100 µM (inactive)
same,GI50,[48],42.2 µM (inactive)
same,GI50,[49],> 100 µM (inactive)
same,GI50,[51],> 100 µM (inactive)
same,GI50,[64],> 100 µM (inactive)
same,GI50,[54],> 100 µM (inactive)
same,GI50,[55],> 100 µM (inactive)
same,GI50,[58],> 100 µM (inactive)
C/C=C/[C@@H](C(=O)OC)N1C(=O)c2ccccc2[C@H]1O,GI50,[1],> 100 µM (inactive)
same,GI50,[2],> 100 µM (inactive)
same,GI50,[3],> 100 µM (inactive)
same,GI50,[4],> 100 µM (inactive)
same,GI50,[5],> 100 µM (inactive)
same,GI50,[6],> 100 µM (inactive)
same,GI50,[7],> 100 µM (inactive)
same,GI50,[8],> 100 µM (inactive)
same,GI50,[9],> 100 µM (inactive)
same,GI50,[10],> 100 µM (inactive)
same,GI50,[11],> 100 µM (inactive)
same,GI50,[12],> 100 µM (inactive)
same,GI50,[13],> 100 µM (inactive)
same,GI50,[14],> 100 µM (inactive)
same,GI50,[15],> 100 µM (inactive)
same,GI50,[16],> 100 µM (inactive)
same,GI50,[17],> 100 µM (inactive)
same,GI50,[18],> 100 µM (inactive)
same,GI50,[19],> 100 µM (inactive)
same,GI50,[20],> 100 µM (inactive)
same,GI50,[21],> 100 µM (inactive)
same,GI50,[22],> 100 µM (inactive)
same,GI50,[23],> 100 µM (inactive)
same,GI50,[24],> 100 µM (inactive)
same,GI50,[25],> 100 µM (inactive)
same,GI50,[26],> 100 µM (inactive)
same,GI50,[27],> 100 µM (inactive)
same,GI50,[28],> 100 µM (inactive)
same,GI50,[29],> 100 µM (inactive)
same,GI50,[30],> 100 µM (inactive)
same,GI50,[31],> 100 µM (inactive)
same,GI50,[32],> 100 µM (inactive)
same,GI50,[33],> 100 µM (inactive)
same,GI50,[34],> 100 µM (inactive)
same,GI50,[35],> 100 µM (inactive)
same,GI50,[36],> 100 µM (inactive)
same,GI50,[37],> 100 µM (inactive)
same,GI50,[38],> 100 µM (inactive)
same,GI50,[39],> 100 µM (inactive)
same,GI50,[40],> 100 µM (inactive)
same,GI50,[41],> 100 µM (inactive)
same,GI50,[42],> 100 µM (inactive)
same,GI50,[43],> 100 µM (inactive)
same,GI50,[44],> 100 µM (inactive)
same,GI50,[45],> 100 µM
same,GI50,[46],> 100 µM (inactive)
same,GI50,[47],> 100 µM (inactive)
same,GI50,[48],> 100 µM (inactive)
same,GI50,[49],> 100 µM (inactive)
same,GI50,[50],> 100 µM (inactive)
same,GI50,[51],> 100 µM (inactive)
same,GI50,[52],> 100 µM (inactive)
same,GI50,[53],> 100 µM (inactive)
same,GI50,[54],> 100 µM (inactive)
same,GI50,[55],> 100 µM (inactive)
same,GI50,[56],> 100 µM (inactive)
same,GI50,[57],> 100 µM (inactive)
same,GI50,[58],> 100 µM (inactive)
same,GI50,[59],> 100 µM (inactive)

# Reference: ChEMBL document CHEMBL1201862, “PubChem BioAssay data set” (2004)
